Laboratory results reported in paper PMC3958260 (2014).

Columns and labels:
[1] = test system: aptamer # 3_7 (DNA, aptamer) ATACCAGCTTATTCAATTGGTGGTAGGATGGGCTCGATCGAGGTCTTCAGTCGGCTCGGTTTAGTTTATGTTCTCCTGTAGATAGTAAGTGCAATCT; assay: bead fluorescence release assay; conditions: 100 mM Na+, 5 mM K+, 2 mM Mg2+, 1 mM Ca2+; 20 mM Tris-HCl pH 7.6, 21 °C; 1 mM compound; release from capture oligo iODN2Sp; single concentration
[2] = test system: aptamer # 13_82 (DNA, aptamer) ATACCAGCTTATTCAATTCAGGGCGGTATGAGGCTCGATCAAGGTCGGAGCGAGAATTTTTTCGCGGAGTCGGCTGGATCAGATAGTAAGTGCAATCT; assay: bead fluorescence release assay; conditions: 100 mM Na+, 5 mM K+, 2 mM Mg2+, 1 mM Ca2+; 20 mM Tris-HCl pH 7.6, 21 °C; 1 mM compound; release from capture oligo iODN2Sp; single concentration
[3] = test system: aptamer # 11_76 (DNA, aptamer) ATACCAGCTTATTCAATTATGCGGGGATGAGGCTTGATCTGTGGCTCTGATCCATGATCAGTCGTCTTACGTGCGGTCCAGATAGTAAGTGCAATCT; assay: bead fluorescence release assay; conditions: 100 mM Na+, 5 mM K+, 2 mM Mg2+, 1 mM Ca2+; 20 mM Tris-HCl pH 7.6, 21 °C; 1 mM compound; release from capture oligo iODN2Sp; single concentration
[4] = test system: aptamer # 3_19 (DNA, aptamer) ATACCAGCTTATTCAATTAGCCCGGTATTGAGGTCGATCTCTTATCCTATGGCTTGTCCCCCATGGCTCGGTTATATCCAGATAGTAAGTGCAATCT; assay: bead fluorescence release assay; conditions: 100 mM Na+, 5 mM K+, 2 mM Mg2+, 1 mM Ca2+, 20 mM Tris-HCl pH 7.6, 21 °C, 1 mM compound, release from capture oligo iODN2Sp; for amount of eluted aptamer DNA: single concentration; for binding: below 1 pmol threshold
[5] = test system: aptamer # 3_7(1-79) (DNA, aptamer) ATACCAGCTTATTCAATTGGTGGTAGGATGGGCTCGATCGAGGTCTTCAGTCGGCTCGGTTTAGTTTATGTTCTCCTGT; assay: bead fluorescence release assay; conditions: 100 mM Na+, 5 mM K+, 2 mM Mg2+, 1 mM Ca2+; 20 mM Tris-HCl pH 7.6, 21 °C; 1 mM compound; release from capture oligo iODN2Sp; single concentration
[6] = test system: aptamer # 13_82(19-80) (DNA, aptamer) CAGGGCGGTATGAGGCTCGATCAAGGTCGGAGCGAGAATTTTTTCGCGGAGTCGGCTGGATC; assay: MTP fluorescence release assay; conditions: 100 mM Na+, 5 mM K+, 2 mM Mg2+, 1 mM Ca2+; 20 mM Tris-HCl pH 7.6, 21 °C; release from capture oligo iODN2Sp; elution not above background
[7] = test system: aptamer # 13_82(19-80) (DNA, aptamer) CAGGGCGGTATGAGGCTCGATCAAGGTCGGAGCGAGAATTTTTTCGCGGAGTCGGCTGGATC; assay: bead fluorescence release assay; conditions: 100 mM Na+, 5 mM K+, 2 mM Mg2+, 1 mM Ca2+; 20 mM Tris-HCl pH 7.6, 21 °C; 1 mM compound; release from capture oligo iODN2Sp; single concentration
[8] = test system: aptamer # 13_82(19-80) (DNA, aptamer) CAGGGCGGTATGAGGCTCGATCAAGGTCGGAGCGAGAATTTTTTCGCGGAGTCGGCTGGATC; assay: fluorescence (bead or MTP assay) or SPR, capture-oligo release; conditions: 100 mM Na+, 5 mM K+, 2 mM Mg2+, 1 mM Ca2+; 20 mM Tris-HCl pH 7.6; release from capture oligo iODN2Sp; micromolar range; apparent
[9] = test system: aptamer # 11_76 (DNA, aptamer) ATACCAGCTTATTCAATTATGCGGGGATGAGGCTTGATCTGTGGCTCTGATCCATGATCAGTCGTCTTACGTGCGGTCCAGATAGTAAGTGCAATCT; assay: as above; conditions: 100 mM Na+, 5 mM K+, 2 mM Mg2+, 1 mM Ca2+; 20 mM Tris-HCl pH 7.6; release from capture oligo iODN2Sp; micromolar range; apparent
[10] = test system: aptamer # 13_82 (DNA, aptamer) ATACCAGCTTATTCAATTCAGGGCGGTATGAGGCTCGATCAAGGTCGGAGCGAGAATTTTTTCGCGGAGTCGGCTGGATCAGATAGTAAGTGCAATCT; assay: as above; conditions: 100 mM Na+, 5 mM K+, 2 mM Mg2+, 1 mM Ca2+; 20 mM Tris-HCl pH 7.6; release from capture oligo iODN2Sp; micromolar range; apparent
[11] = test system: # 3_19(1-79) (DNA, aptamer) ATACCAGCTTATTCAATTAGCCCGGTATTGAGGTCGATCTCTTATCCTATGGCTTGTCCCCCATGGCTCGGTTATATCC; assay: MTP fluorescence release assay; conditions: 100 mM Na+, 5 mM K+, 2 mM Mg2+, 1 mM Ca2+; 20 mM Tris-HCl pH 7.6, 21 °C; release from capture oligo iODN2Sp; elution not above background
[12] = test system: aptamer # 3_19 (DNA, aptamer) ATACCAGCTTATTCAATTAGCCCGGTATTGAGGTCGATCTCTTATCCTATGGCTTGTCCCCCATGGCTCGGTTATATCCAGATAGTAAGTGCAATCT; assay: fluorescence (bead or MTP assay) or SPR, capture-oligo release; conditions: 100 mM Na+, 5 mM K+, 2 mM Mg2+, 1 mM Ca2+; 20 mM Tris-HCl pH 7.6; release from capture oligo iODN2Sp; micromolar range; apparent
[13] = test system: aptamer # 3_7(1-79) (DNA, aptamer) ATACCAGCTTATTCAATTGGTGGTAGGATGGGCTCGATCGAGGTCTTCAGTCGGCTCGGTTTAGTTTATGTTCTCCTGT; assay: as above; conditions: 100 mM Na+, 5 mM K+, 2 mM Mg2+, 1 mM Ca2+; 20 mM Tris-HCl pH 7.6; release from capture oligo iODN2Sp; micromolar range; apparent

Row | Compound | amount of eluted aptamer DNA [1] | amount of eluted aptamer DNA [2] | amount of eluted aptamer DNA [3] | amount of eluted aptamer DNA [4] | amount of eluted aptamer DNA [5] | binding [6] | amount of eluted aptamer DNA [7] | binding [4] | dissociation constant [8] | dissociation constant [9] | dissociation constant [10] | binding [11] | dissociation constant [12] | dissociation constant [13]
1 | CN[C@@H]1[C@@H](O[C@H]2O[C@H](CO)[C@@H](N)[C@H](O)[C@H]2O)O[C@H]2C[C@@H](N)[C@@H](O[C@H]3[C@H](O)[C@@H](O)[C@H](N)C[C@@H]3N)O[C@@H]2[C@@H]1O | 3.04 pmol | 3.40 pmol | 3.04 pmol | 2.27 pmol | 1.68 pmol | – | – | – | – | – | – | – | – | –
2 | NC[C@H]1O[C@H](O[C@H]2[C@H](O)[C@@H](O[C@H]3O[C@H](CO)[C@@H](O)[C@H](N)[C@H]3O)[C@H](N)C[C@@H]2N)[C@H](N)[C@@H](O)[C@@H]1O | 4.42 pmol | 7.22 pmol | 5.21 pmol | – | 8.04 pmol | – | 3.09 pmol | no | – | – | – | – | – | –
3 | NC[C@H]1O[C@H](O[C@H]2[C@H](O)[C@@H](O[C@H]3O[C@H](CO)[C@@H](O)[C@H](N)[C@H]3O)[C@H](N)C[C@@H]2N)[C@H](O)[C@@H](O)[C@@H]1O | 4.62 pmol | 6.85 pmol | 5.02 pmol | 3.02 pmol | 10.44 pmol | – | 6.87 pmol | – | 5.4 µM | 9.6 µM | 5.1 µM | no | 3.9 µM | 146 µM

The next lines start with the values.

Row | amount of eluted aptamer DNA [1] | amount of eluted aptamer DNA [2] | amount of eluted aptamer DNA [3] | amount of eluted aptamer DNA [4] | amount of eluted aptamer DNA [5] | binding [6] | amount of eluted aptamer DNA [7] | binding [4] | dissociation constant [8] | dissociation constant [9] | dissociation constant [10] | binding [11] | dissociation constant [12] | dissociation constant [13] | Compound
4 | 1.03 pmol | 1.01 pmol | 1.03 pmol | – | – | – | – | – | – | – | – | – | – | – | CCN[C@@H]1C[C@H](N)[C@@H](O[C@H]2OC(CN)=CC[C@H]2N)[C@H](O)[C@H]1O[C@H]1OC[C@](C)(O)[C@H](NC)[C@H]1O
5 | – | – | – | – | – | no | – | – | – | – | – | – | – | – | NC[C@@H]1O[C@H](O[C@H]2[C@@H](O)[C@H](O[C@@H]3[C@@H](O)[C@H](N)C[C@H](N)[C@H]3O[C@H]3O[C@H](CO)[C@@H](O)[C@H](O)[C@H]3N)O[C@@H]2CO)[C@H](N)[C@@H](O)[C@@H]1O
6 | – | 2.78 pmol | 4.03 pmol | – | 1.91 pmol | – | 1.13 pmol | no | – | – | – | – | – | – | NC[C@H]1O[C@H](O[C@H]2[C@H](O)[C@@H](O[C@H]3O[C@H](CO)[C@@H](O)[C@H](N)[C@H]3O)[C@H](N)C[C@@H]2N)[C@H](N)C[C@@H]1O
